Our source for the EC50 values is BindingDB's records for patent US9290451 (Hoffmann-La Roche Inc, 2016).

A value given as a limit tells only on which side of the number the result lay.

The target of one test is Cannabinoid receptor 1 (Homo sapiens, UniProt P21554). In words: cAMP Assay. To be noted: 37 °C. The protocol:
(§1) CHO cells expressing human CB1 or CB2 receptors are seeded 17-24 hours prior to the experiment 50.000 cells per well in a black 96 well plate with flat clear bottom (Corning Costar #3904) in DMEM (Invitrogen No. 31331), 1×HT supplement, with 10% fetal calf serum and incubated at 5% CO2 and 37° C. in a humidified incubator. The growth medium was exchanged with Krebs Ringer Bicarbonate buffer with 1 mM IBMX and incubated at 30° C. for 30 min Compounds were added to a final assay volume of 100 ul and incubated for 30 min at 30° C. Using the cAMP-Nano-TRF detection kit the assay (Roche Diagnostics) was stopped by the addition of 50 ul lysis reagent (Tris, NaCl, 1.5% Triton X100, 2.5% NP40, 10% NaN3) and 50 ul detection solutions (20 uM mAb Alexa700-cAMP 1:1, and 48 uM Ruthenium-2-AHA-cAMP) and shaken for 2 h at room temperature. The time-resolved energy transfer is measured by a TRF reader (Evotec Technologies GmbH), equipped with a ND:YAG laser as excitation source. The plate is measured twice with the excitation at 355 nm and at the emission with a delay of 100 ns and a gate of 100 ns, total exposure time 10 s at 730 (bandwidth 30 nm) or 645 nm (bandwidth 75 nm), respectively. The FRET signal is calculated.

For another test, the target named is Cannabinoid receptor 2 (Homo sapiens, UniProt P34972). As to the kind of experiment: cAMP Assay. The following applies: 37 °C. How it is done: as §1
Cannabinoid receptor 2, sequence (P34972 whole entry): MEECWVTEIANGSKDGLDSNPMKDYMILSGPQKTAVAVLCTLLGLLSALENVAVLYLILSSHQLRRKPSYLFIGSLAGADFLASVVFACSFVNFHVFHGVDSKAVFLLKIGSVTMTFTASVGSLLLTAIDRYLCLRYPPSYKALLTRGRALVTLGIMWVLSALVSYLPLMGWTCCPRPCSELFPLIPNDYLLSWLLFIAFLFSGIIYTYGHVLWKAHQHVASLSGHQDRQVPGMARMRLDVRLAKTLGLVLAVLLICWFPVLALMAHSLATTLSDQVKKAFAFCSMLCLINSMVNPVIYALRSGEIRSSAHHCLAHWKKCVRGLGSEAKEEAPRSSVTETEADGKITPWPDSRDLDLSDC

Cannabinoid receptor 1, sequence (P21554 whole entry): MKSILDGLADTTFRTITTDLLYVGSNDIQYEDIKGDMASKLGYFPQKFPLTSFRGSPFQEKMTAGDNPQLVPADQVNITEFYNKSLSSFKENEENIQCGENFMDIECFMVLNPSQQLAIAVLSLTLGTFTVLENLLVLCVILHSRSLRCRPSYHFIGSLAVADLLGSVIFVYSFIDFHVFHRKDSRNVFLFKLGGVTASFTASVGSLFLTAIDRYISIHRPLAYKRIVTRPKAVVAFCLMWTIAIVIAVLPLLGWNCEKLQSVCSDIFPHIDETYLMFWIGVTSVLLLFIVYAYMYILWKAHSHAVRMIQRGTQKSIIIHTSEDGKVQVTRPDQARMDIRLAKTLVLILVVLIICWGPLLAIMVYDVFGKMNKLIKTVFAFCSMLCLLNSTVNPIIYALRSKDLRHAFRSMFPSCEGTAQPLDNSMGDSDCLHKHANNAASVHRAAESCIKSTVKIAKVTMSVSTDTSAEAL

The term EC50 denotes the concentration that produces a half-maximal response. `Cc1cnc(C(C)(C)NC(=O)c2ccc(N3CC(F)(F)C3)c(OCC3CC3)n2)s1` [US9290451, 353]: the EC50 was greater than 10000 nM on Cannabinoid receptor 1 and 4.9 nM at Cannabinoid receptor 2.
For the molecule `CC(C)(CO)NC(=O)c1ccc(NC2CC2)c(OCC2CC2)n1` [US9290451, 159], the EC50 on Cannabinoid receptor 1 is greater than 10000 nM; on Cannabinoid receptor 2, 780 nM.
For `O=C(c1ccc(C2CC2)c(-c2cccc(Cl)c2)n1)N1CCS(=O)(=O)CC1` [US9290451, 48] the same measures were greater than 10000 nM and 477 nM.
For `O=C(c1ccc(C2CCCC2)c(OCC2CC2)n1)N1CCS(=O)(=O)CC1` [US9290451, 39] the same measures were greater than 10000 nM and 303 nM.
